# Experimental data published in patent US9187397B2 (STC.UNM, priority 2004, dated 2015).
# Like-named read-outs stand apart in the source and are kept apart here.
# Columns and labels:
# [1] = Total Radical-trapping Anti-oxidant Parameter assay (TRAP assay); set-up: key to TRAP: active as an antioxidant (+); settings: for TRAP: antioxidant activity; for activity in the TRAP assay: compared with curcumin
# Procedure: This assay is also known as the Total radical-trapping anti-oxidant parameter assay (TRAP assay). For the TRAP assay (Re et al., Free Rad. Biol. […] The turquoise colored reaction was allowed to stabilize for 5 min and the absorbance monitored on a Perkin Elmer UV/Vis Lambda 2S. […] The following FIGS. 2A-2C) show the analogs active in the TRAP assay.
# [2] = Ferric Reducing/Anti-oxidant Power assay (FRAP assay); set-up: key to FRAP: active as an antioxidant (+); settings: for FRAP: antioxidant activity; for activity in the FRAP assay: compared with curcumin
# Procedure: Anti-oxidant activity was also measured in the Ferric reducing/anti-oxidant power assay (FRAP assay) in which the analogs are reacted with a ferric tripyridyltriazine complex. For the FRAP assay (Benzie et al., Meth. Enzymol. 1999, 299, 15-27), the ferric complex was prepared at room temperature by reaction of ferric chloride (16.7 mM) and 2,4,6-tripyridyl-s-triazine (8.33 mM) in acetate buffer (0.25 M) to pH 3.6. The FRAP reagent was used immediately after preparation. […] The reaction was mixed by vortexing, allowed to stabilize for 5 min and the absorbance recorded on a Perkin Elmer UV/Vis Lambda 2S. […] The synthetic analog of α-tocopherol (vitamin E), Trolox, was used as a reference standard (10 μM in ethanol).
# The second assay used, the FRAP assay, determines the analogs abilities to reduce a Fe(III) tripyridyltriazine complex to a Fe(II) tripyridyltriazine complex. The following FIGS. 3A-3C) show analogs active in the FRAP assay.
# [3] = tested on: NF-κB; test: NF-κB luciferase reporter cellular assay (293T/NF-κB-luc, TNFα-stimulated); format: cell-based, human; settings: for IC50: Homo sapiens, HEK-293T, inhibition of TNFα-induced NF-κB activation; for inhibition of the activation of NF-κB by TNFα (screen): 10 μM, compared with curcumin
# Procedure: The cell line is derived from human 293T embryonic kidney cells expressing the large T antigen containing a chromosomal integration of a luciferase reporter construct regulated by 6 copies of the NF-κB response element (Panomics, Inc.). This stable clonal cell line is obtained by co-transfection of pNF-κB-luc and pTK-hyg containing plasmids followed by the addition of hygromycin (200 μg/ml) to maintain cell selection.
# The cell line was grown in a humidified atmosphere at 37° C. in 5% CO2/95% air and maintained in Dulbecco's Modified Eagle's Medium (DMEM-high glucose containing 4 mM glutamine) containing fetal bovine serum (FBS, 10%), sodium pyruvate (1 mM), penicillin (100 units/ml), streptomycin (100 μg/ml) and hygromycin (100 μg/m) to maintain cell selection (Gibco/Invitrogen).
# The 293T/NF-κB-luc cells were re-plated 24 hr prior to treatment, into 24-well cell culture plates in media without hygromycin, to prevent it from interfering with the assay. The cells were then allowed to grow and attach, to the wells, for 24 hr in a humidified atmosphere at 37° C. in 5% CO2/95% air. […] The cells then were placed again in a humidified atmosphere at 37° C. in 5% CO2/95% air for 7 hr. Plate wells were gently washed with PBS, pH 7.4, and lysed with passive lysis buffer (1×, 100 μl, Promega). The subsequent chemiluminescent lysates were analyzed with the Luciferase Assay System (Promega) utilizing a TD-20/20 luminometer. The relative light units (photons) were determined by the addition of firefly luciferase substrate (75 μl) to cell lysate (10 μl). The light units were then normalized to the amount of protein in the well (mg/ml) with BCA™ Protein Assay Kit (Pierce) and standardized to percent of control (TNFα).
# This assay utilized a commercially available cell line (Panomics 293T-luc cellular assay) developed for screening inhibitors of NF-κB. This cell line is stably transfected with a luciferase reporter controlled by an NF-κB dependent promoter. The cell is stimulated with tumor necrosis factor alpha (TNFα) which activates NF-κB. NF-κB then binds to one of six promoter regions on the cell's DNA leading to the production of a luciferase enzyme. Luciferin is added to the cell lysates and the luciferase enzyme catalyzes a cleavage of luciferin leading to the emission of light.
# This cell line was developed by Panomics for screening potential inhibitors of NF-κB. Cells are stimulated with TNF-α to express luciferase, whose activity is monitored in a chemiluminometer.
# An NF-κB reporter stable cell line from human 293T embryonic kidney cells (293T/NFκB-luc) (Panomics) was grown in a humidified atmosphere at 37° C. in 5% CO2/95% air. The cells were maintained in Dulbecco's Modified Eagle's Medium (DMEM—high glucose containing 4 mM glutamine) supplemented with 10% fetal bovine serum (FBS), 1 mM sodium pyruvate, 100 units/ml penicillin, 100 μg/m streptomycin and 100 μg/ml hygromycin (Gibco/Invitrogen, Carlsbad, Calif.)) to maintain cell selection. One day prior to treatment, the 293T/NFκB-luc cells were plated into 24-well cell culture plates (Costar) at approximately 70% confluency in the above media without hygromycin. The following day cells were fed fresh media 1 hour prior to treatment. […] The cells were placed again in a humidified atmosphere at 37° C. in 5% CO2/95% air for 7 hours. Plate wells were gently washed with phosphate buffered saline, pH 7.4, and lysed with 1× passive lysis buffer (Promega). The subsequent lysates were analyzed with the Luciferase Assay System (Promega) utilizing a TD-20/20 luminometer (Turner Designs). The firefly luciferase relative light units were normalized to protein (mg/ml) with BCATM Protein Assay Kit (Pierce) and standardized to TNF-α control.
# [4] = molecular target: glutathione S-transferase P1-1 (Homo sapiens (Human), UniProt P09211); test: GSTP1-1 enzyme inhibition assay (CDNB/GSH, 340 nm); format: biochemical; settings: 1 mM CDNB, 1 mM GSH, pH 6.5; compared with curcumin
# glutathione S-transferase P1-1, sequence (P09211 2-210): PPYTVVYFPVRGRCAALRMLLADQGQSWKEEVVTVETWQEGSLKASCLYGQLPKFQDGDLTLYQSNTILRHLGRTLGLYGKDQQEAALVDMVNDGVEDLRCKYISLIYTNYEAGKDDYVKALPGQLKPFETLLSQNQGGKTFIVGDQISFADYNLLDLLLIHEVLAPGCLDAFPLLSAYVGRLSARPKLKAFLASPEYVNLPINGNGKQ
# Procedure: Kinetic analysis assays were conducted. […] GSTP1-1 activity was measured at pH 6.5 in 1 ml volumes of 20 mM potassium phosphate buffer containing 100 mM NaCl, 1 mM CDNB and 1 mM GSH. […] (Perkin/Elmer Lambda 2S spectrophotometer). These activities were plotted as percent of control (GSTP1-1 activity without inhibitors). Kinetic analysis (dissociation constants) of inhibitors was determined by linear regression analysis of the Dixon, plots. […] Ki's were calculated utilizing SigmaPlot's Enzyme Kinetics Module™ (Chicago, Ill., USA). […]
# These activities were plotted as percent of control (GSTP1-1 activity without inhibitors).
# [5] = tested on: AP-1; test: AP-1 luciferase reporter cellular assay (293/AP1-luc, PMA-stimulated); format: cell-based, human; settings: for activity in the AP-1 cellular assay (screen): 15 μM, compared with curcumin; for IC50: Homo sapiens
# Procedure: This cell line is obtained by co-transfection of pAP1-luc and pTK-hyg containing plasmids followed by the addition of hygromycin (200 μg/ml) to maintain cell selection.
# After 24 hr, the cells had reached approximately 60% confluency. […] Plate wells were gently washed with PBS, pH 7.4, and lysed with passive lysis buffer (1×, 100 μl, Promega). The subsequent chemiluminescent lysates were analyzed with the Luciferase Assay System (Promega) utilizing a TD-20/20 luminometer. The relative light units (photons) were determined by the addition of firefly luciferase substrate (75 μl) to cell lysate (10 μl). The light units were then normalized to the amount of protein in the well (mg/ml) with BCA™ Protein Assay Kit (Pierce) and standardized to percent of control (PMA).
# This cell line is stably transfected with a luciferase reporter controlled by an AP-1 dependent promoter. The cell is stimulated with phorbol ester which activates AP-1. AP-1 then binds to one of three promoter regions on the cells DNA leading to the production of a luciferase enzyme. Luciferin is added to the cell lysates and the luciferase enzyme catalyzes a cleavage of luciferin leading to the emission of light.
# [6] = 293T/NF-κB-luc cells, Table 5, read-out: IC50
# [7] = inhibition of PMA-induced AP-1 activation, 293/AP1-luc cells, Table 10, read-out: AP-1 IC50
structure (smiles),measurement,setting,value
COc1cc(/C=C/C(=O)/C=C(O)/C=C/c2ccc(O)c(OC)c2)ccc1O [3a],TRAP,[1]; Table 10,+
same,FRAP,[2]; Table 10,+
same,IC50,"[3]; Table 10, read-out: NF-κB IC50",8.2 µM
O=C(/C=C(O)/C=C/c1ccccc1)/C=C/c1ccccc1 [3b],activity in the GSTP1-1 screening assay,[4],more active than curcumin
COc1ccccc1/C=C/C(=O)/C=C(O)/C=C/c1ccccc1OC [3c],activity in the GSTP1-1 screening assay,[4],more active than curcumin
COc1cc(/C=C/C(=O)/C(C)=C(O)/C=C/c2ccc(O)c(OC)c2)ccc1O [6a],TRAP,"[1]; 10 μM in ethanol, Table 5",+
same,TRAP,[1]; Table 10,+
same,FRAP,"[2]; 10 μM in ethanol, Table 5",+
same,FRAP,[2]; Table 10,+
same,inhibition of the activation of NF-κB by TNFα (screen),[3],more active than curcumin
same,IC50,[3]; [6],6.8 µM
same,IC50,"[3]; Table 10, read-out: NF-κB IC50",6.7 µM
same,activity in the AP-1 cellular assay (screen),[5],more active than curcumin
same,IC50,[5]; [7],6 µM
CC(C(=O)C=Cc1ccccc1)=C(O)C=Cc1ccccc1 [6b],activity in the GSTP1-1 screening assay,[4],more active than curcumin
COc1cc(/C=C/C(=O)/C(Cc2ccccc2)=C(O)/C=C/c2ccc(O)c(OC)c2)ccc1O [9a],TRAP,"[1]; 10 μM in ethanol, Table 5",+
same,TRAP,[1]; Table 10,+
same,FRAP,"[2]; 10 μM in ethanol, Table 5",+
same,FRAP,[2]; Table 10,+
same,inhibition of the activation of NF-κB by TNFα (screen),[3],more active than curcumin
same,IC50,[3]; [6],7.6 µM
same,IC50,"[3]; Table 10, read-out: NF-κB IC50",7.6 µM
same,activity in the AP-1 cellular assay (screen),[5],more active than curcumin
same,IC50,[5]; [7],5.3 µM
O=C(/C=C/c1ccccc1)C(Cc1ccccc1)(Cc1ccccc1)C(=O)/C=C/c1ccccc1 [12b],activity in the GSTP1-1 screening assay,[4],more active than curcumin
COc1cc(CCC(=O)/C=C(\O)CCc2ccc(O)c(OC)c2)ccc1O [13a],activity in the TRAP assay,[1]; 10 μM in ethanol,more active than curcumin
same,activity in the FRAP assay,[2]; 10 μM in ethanol,potent antioxidant activity
Cc1ccc(/C=C/C(=O)/C=C/c2ccc(C)cc2)cc1 [20aa],activity in the GSTP1-1 screening assay,[4],better inhibitory activity than curcumin
Cc1cccc(/C=C/C(=O)/C=C/c2cccc(C)c2)c1 [20ab],activity in the GSTP1-1 screening assay,[4],better inhibitory activity than curcumin
O=C(/C=C/c1ccc(O)c(O)c1)/C=C/c1ccc(O)c(O)c1 [20af],activity in the TRAP assay,[1]; 10 μM in ethanol,more active than curcumin
same,activity in the FRAP assay,[2]; 10 μM in ethanol,more active than curcumin
COc1cc(/C=C/C(=O)/C=C/c2ccc(OC(C)=O)c(OC)c2)ccc1OC(C)=O [20ag],FRAP,"[2]; 10 μM in ethanol, Table 5",+
same,FRAP,[2]; Table 10,+
same,inhibition of the activation of NF-κB by TNFα (screen),[3],more active than curcumin
same,IC50,[3]; [6],5.4 µM
same,IC50,"[3]; Table 10, read-out: NF-κB IC50",5.4 µM
same,activity in the AP-1 cellular assay (screen),[5],more active than curcumin
same,IC50,[5]; [7],8.3 µM
O=C(/C=C/c1ccccc1)/C=C/c1ccccc1 [20b],activity in the GSTP1-1 screening assay,[4],better inhibitory activity than curcumin
O=C(/C=C/c1ccc(O)cc1)/C=C/c1ccc(O)cc1 [20f],activity in the GSTP1-1 screening assay,[4],better inhibitory activity than curcumin
O=C(/C=C/c1cccc(O)c1)/C=C/c1cccc(O)c1 [20p],activity in the GSTP1-1 screening assay,[4],better inhibitory activity than curcumin
O=C(/C=C/c1ccc(Cl)cc1)/C=C/c1ccc(Cl)cc1 [20x],activity in the GSTP1-1 screening assay,[4],better inhibitory activity than curcumin
O=C(/C=C/c1cccc(Cl)c1)/C=C/c1cccc(Cl)c1 [20y],activity in the GSTP1-1 screening assay,[4],better inhibitory activity than curcumin
COc1cc(/C=C/C(C)=O)ccc1O [35a],activity in the FRAP assay,[2]; 10 μM in ethanol,active
same,inhibition of the activation of NF-κB by TNFα (screen),[3],more active than curcumin
COc1cc(/C=C2\CCC/C(=C\c3ccc(O)c(OC)c3)C2=O)ccc1O [38a],TRAP,"[1]; 10 μM in ethanol, Table 5",+
same,TRAP,[1]; Table 10,+
same,FRAP,"[2]; 10 μM in ethanol, Table 5",+
same,FRAP,[2]; Table 10,+
same,activity in the AP-1 cellular assay (screen),[5],more active than curcumin
same,IC50,"[5]; AP1, read-out: AP-1 IC50 (μM)",7.3 µM
COc1cc(/C=C/C(=O)c2ccc(O)c(OC)c2)ccc1O [45a],activity in the TRAP assay,[1]; 10 μM in ethanol,more active than curcumin
same,activity in the FRAP assay,[2]; 10 μM in ethanol,active
same,inhibition of the activation of NF-κB by TNFα (screen),[3],more active than curcumin
same,activity in the AP-1 cellular assay (screen),[5],most active
O=C(O)c1ccc(C(=O)/C=C/c2ccccc2)cc1 [46ad],activity in the FRAP assay,[2]; 10 μM in ethanol,active
same,activity in the AP-1 cellular assay (screen),[5],Active
COc1cc(/C=C/C(=O)c2ccccc2)ccc1O [48a],activity in the FRAP assay,[2]; 10 μM in ethanol,active
same,activity in the AP-1 cellular assay (screen),[5],most active
